Where two headings read alike, the source gives them in different places.
Target: 5-HT2A receptor (Homo sapiens (Human), UniProt P28223)
Assay: Receptor Selection and Amplification (R-SAT) functional antagonist assay;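 also: Read-out is β-galactosidase marker gene activity with ONPG substrate, measured after five days of growth in 96-well plates holding the test compound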
[1] = R-SAT, transfected NIH3T3 cells, guidance: high affinity pKi≥8.4, moderate affinity pKi≥7.7

5-HT2A receptor, sequence (P28223 whole entry): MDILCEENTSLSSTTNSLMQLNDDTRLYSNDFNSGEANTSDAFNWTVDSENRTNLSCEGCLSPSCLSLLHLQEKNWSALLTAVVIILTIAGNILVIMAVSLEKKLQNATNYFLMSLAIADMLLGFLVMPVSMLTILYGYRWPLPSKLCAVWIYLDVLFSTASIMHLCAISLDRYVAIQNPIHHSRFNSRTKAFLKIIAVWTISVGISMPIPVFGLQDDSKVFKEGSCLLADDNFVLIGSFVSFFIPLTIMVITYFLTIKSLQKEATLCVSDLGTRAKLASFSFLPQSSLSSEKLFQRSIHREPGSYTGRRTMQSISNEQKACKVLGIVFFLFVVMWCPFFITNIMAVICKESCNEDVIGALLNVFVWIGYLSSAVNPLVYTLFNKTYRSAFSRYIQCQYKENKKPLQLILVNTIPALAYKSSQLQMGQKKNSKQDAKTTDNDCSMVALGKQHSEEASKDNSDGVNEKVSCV
Experimental: Receptor Selection and Amplification (R-SAT) Assays. […] For large-scale transfections, cells were transfected for 12-16 h, then trypsinized and frozen in DMSO. Frozen cells were later thawed, plated at 10,000-40,000 cells per well of a 96 well plate that contained a compound according to Formula (I). […] With both methods, cells were then grown in a humidified atmosphere with 5% ambient CO2 for five days. Media was then removed from the plates and marker gene activity was measured by the addition of the b-galactosidase substrate o-nitrophenyl b-D-galactopyranoside (ONPG, in PBS with 5% NP-40). […] All data were analyzed using the computer program XLFit (IDBSm).

5-HT2a pKi [1]	SMILES	also measured
	CC(C)Oc1ccc(COC(=O)N(Cc2ccc(F)cc2)[C@H]2CCNC[C@H]2F)cc1 (racemic) [3a/3b, [4-(propan-2-yloxy)phenyl]methyl N-[(4-fluorophenyl)methyl]-N-[(3R,4S)-3-fluoropiperidin-4-yl]carbamate (3a) and [4-(propan-2-yloxy)phenyl]methyl N-[(4-fluorophenyl)methyl]-N-[(3S,4R)-3-fluoropiperidin-4-yl]carbamate (3b)]	Ki: 0.1 nM
	CC(C)Oc1ccc(COC(=O)N(Cc2ccc(F)cc2)[C@H]2CCN(C)C[C@H]2F)cc1 (racemic) [4a/4b, [4-(propan-2-yloxy)phenyl]methyl N-[(3R,4S)-3-fluoro-1-methylpiperidin-4-yl]-N-[(4-fluorophenyl)methyl]carbamate (4a) and [4-(propan-2-yloxy)phenyl]methyl N-[(3S,4R)-3-fluoro-1-methylpiperidin-4-yl]-N-[(4-fluorophenyl)methyl]carbamate (4b)]	Ki: 0.1 nM
	CC(C)COc1ccc(COC(=O)N(Cc2ccc(F)cc2)[C@H]2CCNC[C@H]2F)cc1 (racemic) [5a/5b, [4-(2-methylpropoxy)phenyl]methyl N-[(4-fluorophenyl)methyl]-N-[(3R,4S)-3-fluoropiperidin-4-yl]carbamate (5a) and [4-(2-methylpropoxy)phenyl]methyl N-[(4-fluorophenyl)methyl]-N-[(3S,4R)-3-fluoropiperidin-4-yl]carbamate (5b)]	Ki: 0.251 nM
	CC(C)COc1ccc(COC(=O)N(Cc2ccc(F)cc2)[C@H]2CCN(C)C[C@H]2F)cc1 (racemic) [6a/6b, [4-(2-methylpropoxy)phenyl]methyl N-[(3R,4S)-3-fluoro-1-methylpiperidin-4-yl]-N-[(4-fluorophenyl)methyl]carbamate (6a) and [4-(2-methylpropoxy)phenyl]methyl N-[(3S,4R)-3-fluoro-1-methylpiperidin-4-yl]-N-[(4-fluorophenyl)methyl]carbamate (6b)]	Ki: 0.251 nM
	CC(C)COc1ccc(CCOC(=O)N(Cc2ccc(F)cc2)[C@H]2CCNC[C@H]2F)cc1 (racemic) [9a/9b, 2-[4-(2-methylpropoxy)phenyl]ethyl N-[(4-fluorophenyl)methyl]-N-[(3R,4S)-3-fluoropiperidin-4-yl]carbamate; trifluoroacetic acid (9a) and 2-[4-(2-methylpropoxy)phenyl]ethyl N-[(4-fluorophenyl)methyl]-N-[(3S,4R)-3-fluoropiperidin-4-yl]carbamate; trifluoroacetic acid (9b)]	Ki: 63.1 nM
	CC(C)COc1ccc(CCOC(=O)N(Cc2ccc(F)cc2)[C@H]2CCN(C)C[C@H]2F)cc1 (racemic) [10a/10b, 2-[4-(2-methylpropoxy)phenyl]ethyl N-[(3R,4S)-3-fluoro-1-methylpiperidin-4-yl]-N-[(4-fluorophenyl)methyl]carbamate (10a) and 2-[4-(2-methyl-propoxy)phenyl]ethyl N-[(3S,4R)-3-fluoro-1-methylpiperidin-4-yl]-N-[(4-fluorophenyl)-methyl]carbamate (10b)]	Ki: 15.8 nM
9.7	CC(C)Oc1ccc(COC(=O)N(Cc2ccc(Cl)cc2)C2CCN(C)CC2)cc1 [Compound 1, [4-(propan-2-yloxy)phenyl]methyl N-[(4-chlorophenyl)methyl]-N-(1-methylpiperidin-4-yl)carbamate]	
9.9	CC(C)COc1ccc(COC(=O)N(Cc2ccc(F)cc2)C2CCN(C)CC2)cc1 [Compound 2, [4-(2-methylpropoxy)phenyl]methyl N-[(4-fluorophenyl)methyl]-N-(1-methylpiperidin-4-yl)carbamate]	
	CC(C)Oc1ccc(COC(=O)N(Cc2ccc(F)cc2F)C2CCNCC2)cc1.O=C(O)C(F)(F)F [Compound 11, [4-(propan-2-yloxy)phenyl]methyl N-[(2,4-difluorophenyl)methyl]-N-(piperidin-4-yl)carbamate]	5-HT2a pKi: 9.6
9.6	CC(C)Oc1ccc(COC(=O)N(Cc2ccc(F)cc2)C2CCN(C)CC2)cc1 [Compound 12, [4-(propan-2-yloxy)phenyl]methyl N-[(4-fluorophenyl)methyl]-N-(1-methylpiperidin-4-yl)carbamate]	
9.9	CC(C)Oc1ccc(COC(=O)N(Cc2ccc(F)cc2F)C2CCN(C)CC2)cc1 [Compound 13, [4-(propan-2-yloxy)phenyl]methyl N-[(2,4-difluorophenyl)methyl]-N-(1-methylpiperidin-4-yl)carbamate]	
7.6	CC(C)COc1ccc(COC(=O)N(Cc2ccc(F)cc2F)C2CCN(C)CC2)cc1 [Compound 14, [4-(2-methylpropoxy)phenyl]methyl N-[(2,4-difluorophenyl)methyl]-N-(1-methylpiperidin-4-yl)carbamate]	
9.3	COc1ccc(COC(=O)N(Cc2ccc(F)cc2F)C2CCN(C)CC2)cc1 [Compound 15, (4-methoxyphenyl)methyl N-[(2,4-difluorophenyl)methyl]-N-(1-methylpiperidin-4-yl)carbamate]	
7.6	COc1ccc(CSC(=O)N(Cc2ccc(F)cc2F)C2CCN(C)CC2)cc1 [Compound 16, N-[(2,4-difluorophenyl)methyl]-N-(1-methylpiperidin-4-yl){[(4-methoxyphenyl)methyl]sulfanyl}formamide]	
7.5	CC(C)Oc1ccc(C(OC(=O)N(Cc2ccc(F)cc2)C2CCN(C)CC2)C(F)(F)F)cc1 (stereo not drawn) [Compound 17, 2,2,2-trifluoro-1-[4-(propan-2-yloxy)phenyl]ethyl N-[(4-fluorophenyl)methyl]-N-(1-methylpiperidin-4-yl)carbamate]	
	CC(C)Oc1ccc(COC(=O)N(Cc2ccc(F)cc2)[C@H]2CCN3CCC[C@H]3C2)cc1 [Compound 18, [4-(propan-2-yloxy)phenyl]methyl N-[(7S,8aS)-octahydroindolizin-7-yl]-N-[(4-fluorophenyl)methyl]carbamate]	Ki: 0.0158 nM
	CCOc1ccc(CC(=O)N(Cc2ccc(F)cc2F)C2CCN(C)CC2)cc1.O=C(O)C(F)(F)F [Compound 23, N-(2,4-difluorobenzyl)-2-(4-ethoxyphenyl)-N-(1-methylpiperidin-4-yl)acetamide; trifluoroacetic acid]	5-HT2a pKi: 7.8
	CCCCOc1ccc(CC(=O)N(Cc2ccc(F)cc2F)C2CCN(C)CC2)cc1.O=C(O)C(F)(F)F [Compound 24, N-(2,4-difluorobenzyl)-2-(4-butoxyphenyl)-N-(1-methylpiperidin-4-yl)acetamide trifluoroacetic acid]	5-HT2a pKi: 7.2
9.7	CCOc1ccc(COC(=O)N(Cc2ccc(F)cc2F)C2CCN(C)CC2)cc1 [Compound 25, 4-ethoxybenzyl (2,4-difluorobenzyl)(1-methylpiperidin-4-yl)carbamate]	
9.3	C=CCOc1ccc(COC(=O)N(Cc2ccc(F)cc2F)C2CCN(C)CC2)cc1 [Compound 26, 4-(allyloxy)benzyl (2,4-difluorobenzyl)(1-methylpiperidin-4-yl)carbamate]	
	CN1CCC(N(Cc2ccc(F)cc2F)C(=O)OCc2ccc(OCCCF)cc2)CC1.O=C(O)C(F)(F)F [Compound 27, 4-(3-fluoropropoxy)benzyl (2,4-difluorobenzyl)(1-methylpiperidin-4-yl)carbamate; trifluoroacetic acid]	5-HT2a pKi: 9.8
	CN1CCC(N(Cc2ccc(F)cc2F)C(=O)OCc2ccc(OC(CF)CF)cc2)CC1.O=C(O)C(F)(F)F [Compound 28, 4-((1,3-difluoropropan-2-yl)oxy)benzyl (2,4-difluorobenzyl)(1-methylpiperidin-4-yl)carbamate; trifluoroacetic acid]	5-HT2a pKi: 10.1
10.2	CN1CCC(N(Cc2ccc(F)cc2F)C(=O)OCc2ccc(OCC(C)(C)O)cc2)CC1 [Compound 29, 4-(2-hydroxy-2-methylpropoxy)benzyl (2,4-difluorobenzyl)(1-methylpiperidin-4-yl)carbamate]	
10.5	CN1CCC(N(Cc2ccc(F)cc2F)C(=O)OCc2ccc(OC3CC3)cc2)CC1 [Compound 30, 4-cyclopropoxybenzyl (2,4-difluorobenzyl)(1-methylpiperidin-4-yl)carbamate]	
	CC(C)COc1ccc(CC(=O)N(Cc2ccc(Cl)cc2F)C2CCN(C)CC2)cc1.O=C(O)C(F)(F)F [Compound 31, N-[(4-chloro-2-fluorophenyl)methyl]-N-(1-methylpiperidin-4-yl)-2-[4-(2-methylpropoxy)phenyl]acetamide; trifluoroacetic acid]	5-HT2a pKi: 7.3
	COc1cc(F)c(CN(C(=O)Cc2ccc(OCC(C)C)cc2)C2CCN(C)CC2)c(F)c1.O=C(O)C(F)(F)F [Compound 33, N-[(2,6-difluoro-4-methoxyphenyl)methyl]-N-(1-methylpiperidin-4-yl)-2-[4-(2-methylpropoxy)phenyl]acetamide; trifluoroacetic acid]	5-HT2a pKi: 7.5

SMILES	5-HT2a pKi [1]	also measured
CC(C)Oc1ccc(CC(=O)N(Cc2ccc(F)cc2F)C2CCN(C)CC2)cc1.O=C(O)C(F)(F)F [Compound 19, N-[(2,4-difluorophenyl)methyl]-N-(1-methylpiperidin-4-yl)-2-[4-(propan-2-yloxy)phenyl]acetamide; trifluoroacetic acid]	8.3	
CC(C)COc1ccc(CC(=O)N(Cc2ccc(F)cc2)C2CCN(C)CC2)c(F)c1.O=C(O)C(F)(F)F [Compound 20, 2-[2-fluoro-4-(2-methylpropoxy)phenyl]-N-[(4-fluorophenyl)methyl]-N-(1-methylpiperidin-4-yl)acetamide; trifluoroacetic acid]	8.2	
CC(C)COc1ccc(CC(=O)N(Cc2ccc(F)cc2)C2CCN(C)CC2)cc1F.O=C(O)C(F)(F)F [Compound 21, 2-[3-fluoro-4-(2-methylpropoxy)phenyl]-N-[(4-fluorophenyl)methyl]-N-(1-methylpiperidin-4-yl)acetamide; trifluoroacetic acid]	8.6	
CC(C)COc1ccc(CC(=O)N(Cc2ccc(F)cc2F)C2CCN(C)CC2)cc1.O=C(O)C(F)(F)F [Compound 22, N-(2,4-difluorobenzyl)-2-(4-isobutoxyphenyl)-N-(1-methylpiperidin-4-yl)acetamide; trifluoroacetic acid]	8.2	

From patent publication US11440884B2, “Compounds, salts thereof and methods for treatment of diseases” (ACADIA PHARMACEUTICALS INC., priority 2017, dated 2022)
